The record followed here is patent EP0907648B1, “QUINOLONE CARBOXYLIC ACIDS SUBSTITUTED BY 7-(3-VINYL-1,4-PIPERAZINE-1-YL)” (BAYER AG, priority 1996, dated 1998).

SMILES strings stand for the structures. Converted amounts (≈) assume the structure as drawn. Counter-ions that a name gives are not always drawn. Like-named read-outs stand apart in the source and are kept apart here.

One assay has as its system E. coli. Briefly: MIC (MHK), agar serial dilution on Iso-Sensitest agar. Type of assay: cell-based. Particulars: for MIC: Escherichia coli, 20 h, read-out: MHK-Werte. An excerpt: (§1) Die minimalen Hemmkonzentrationen (MHK) der erfindungsgemäßen Verbindungen wurden per Reihenverdünnungsverfahren auf Iso-Sensitest Agar (Oxoid) bestimmt. Für jede Prüfsubstanz wurde eine Reihe von Agarplatten hergestellt, die bei jeweils doppelter Verdünnung abfallende Konzentrationen des Wirkstoffs enthielten. Die Agarplatten wurden mit einem Multipoint-Inokulator (Denley) beimpft. Zum Beimpfen wurden Übernachtkulturen der Erreger verwandt, die zuvor so verdünnt wurden, daß jeder Impfpunkt ca. 10^4 koloniebildende Partikel enthielt. Die beimpften Agarplatten wurden bei 37°C bebrütet, und das Keimwachstum wurde nach ca. 20 Stunden abgelesen. Der MHK-Wert (µg/ml) gibt die niedrigste Wirkstoffkonzentration an, bei der mit bloßem Auge kein Wachstum zu erkennen war. Die Erfassung der MHK-Werte für Mycoplasmen erfolgte mikroskopisch nach einer Inkubationszeit von 5 bis 7 Tagen.

In the next assay the test system is Staph. spp. The assay is described as above. Type of assay: cell-based. The settings on record: for MIC: 20 h, read-out: MHK-Werte.
In another assay the test system is Bordetella. The assay is described as above. Particulars: Bordetella 9213 GE; for MIC: 20 h, read-out: MHK-Werte. Type of assay: cell-based.
For a further assay, the system named is Salmonella spp. Described as above. Particulars: for MIC: 20 h, Salmonella spp. S 9656, read-out: MHK-Werte; for MHK-Werte: Salmonella spp. S 9657. Type of assay: cell-based.
Excerpt: as §1

For the next assay, the system named is B. bronchiseptica. Described as above. Particulars: for MIC: Bordetella bronchiseptica, 20 h, B. bronchiseptica B 9601, read-out: MHK-Werte. Type of assay: cell-based.
The test system of another assay is M. agalactiae PG 2. Briefly: MIC (MHK) against mycoplasmas, microscopic reading. The settings on record: Mycoplasmopsis agalactiae, PG2, incubation 5 to 7 days, read-out: MHK-Werte gegen Mycoplasmen. Type of assay: cell-based.
The next assay deals with M. bovirhinis PG 43. Briefly: MIC (MHK) against mycoplasmas, microscopic reading. The settings on record: incubation 5 to 7 days, read-out: MHK-Werte gegen Mycoplasmen. Type of assay: cell-based.
The test system of a further assay is M. gallisepticum PG 31. Briefly: MIC (MHK) against mycoplasmas, microscopic reading. Type of assay: cell-based. The settings on record: Mycoplasmoides gallisepticum, PG31, incubation 5 to 7 days, read-out: MHK-Werte gegen Mycoplasmen.
A further assay relates to M. iowae 695. Briefly: MIC (MHK) against mycoplasmas, microscopic reading. Type of assay: cell-based. The settings on record: incubation 5 to 7 days, read-out: MHK-Werte gegen Mycoplasmen.
Assay [1] has as its system E.-coli-Stammes 6200 Serovar 078. Briefly: In vivo antibacterial efficacy in E. coli infected chicks (mortality). Set-up: species or system Hühner-Küken. Particulars: Escherichia coli; chicks infected intrathoracally, oral dose immediately after infection, mortality 48 h after infection. The text has this:
Die antibakterielle Wirksamkeit der erfindungsgemäßen Verbindung in-vivo wurde folgendermaßen bestimmt. Zwei bis […] (Lohmann-Hybriden, Fa. Lohmann, Cuxhaven) wurden mit 5 x 10^6 KBE/ml des E.-coli-Stammes 6200 Serovar 078 (Prof. Hinz, Hannover) intrathorakal infiziert. Unmittelbar nach der Infektion erhielten jeweils Gruppen von 10 bis 20 Küken den Wirkstoff oral appliziert. Ausgetestet wurden 6 Verdünnungen einer geometrischen Verdünnungsreihe. Die Auswertung erfolgte durch […] 48 Stunden nach der Infektion. Die Wirksamkeit der betreffenden Verbindung wird als ED90 in mg/kg angegeben.

Another assay relates to Pseudomonas spp. Briefly: MIC (MHK), agar serial dilution on Iso-Sensitest agar. The settings on record: 20 h; Pseudomonas spp. P 9510; read-out: MHK-Werte. Type of assay: cell-based.
The next assay relates to S. agalactiae. The description is as above. Type of assay: cell-based.
A further assay has as its system S. suis. The assay is described as above. Type of assay: cell-based. The settings on record: Streptococcus suis, 20 h, read-out: MHK-Werte.
The subject of another assay is M. bovis "Donetta". Briefly: microbe, parasite or virus in culture. Type of assay: cell-based. Particulars: read-out: MHK-Werte gegen Mycoplasmen.

In the case of `C=CC1CN(c2c(F)cc3c(=O)c(C(=O)O)cn(C4CC4)c3c2Cl)CCN1/C=C/C(=O)OCC` (centres unmarked) [Bsp. 3, 8-Chlor-1-cyclopropyl-7-[4-(2-ethoxycarbonyl-vinyl)-3-vinyl-1,4-piperazin-1-yl]-6-fluor-1,4-dihydro-4-oxo-3-chinolincarbonsäure], the MIC with E. coli (E. coli 21 Bui) stood at 8 µg/mL (≈ 16.3 µM); with E. coli (E. coli 3614 GE), 8 µg/mL (≈ 16.3 µM); in the assay on E. coli (E. coli 9430 LH) it was 32 µg/mL (≈ 65.3 µM); in the assay on E. coli (E. coli G 293 LH), 16 µg/mL (≈ 32.7 µM); with Staph. spp. (Staph. spp. 2706), 0.25 µg/mL (≈ 0.51 µM); with Staph. spp. (Staph. spp. 3781 GE), 2 µg/mL (≈ 4.08 µM). Also, the MIC was 2 µg/mL (≈ 4.08 µM) in the assay on Staph. spp. (Staph. spp. B 5520 TGD), 2 µg/mL (≈ 4.08 µM) in the assay on Staph. spp. (Staph. spp. G 600 LH) and 16 µg/mL (≈ 32.7 µM) with Bordetella.
For the compound `C=CC1CN(c2c(F)c(N)c3c(=O)c(C(=O)O)cn(C4CC4)c3c2F)CCN1` (centres unmarked) [Bsp. 4, 5-Amino-1-cyclopropyl-6,8-difluor-1,4-dihydro-4-oxo-7-(3-vinyl-1,4-piperazin-1-yl)-chinolincarbonsäure], the MIC in the assay on E. coli (E. coli 21 Bui) amounted to 16 µg/mL (≈ 41 µM); with E. coli (E. coli 3614 GE), 16 µg/mL (≈ 41 µM); with E. coli (E. coli 9430 LH) it was 64 µg/mL (≈ 164 µM); with E. coli (E. coli Ec 9675), 0.5 µg/mL (≈ 1.28 µM); in the assay with E. coli (E. coli G 293 LH), 32 µg/mL (≈ 82 µM); with Salmonella spp., 0.5 µg/mL (≈ 1.28 µM). The MIC in the assay on Staph. spp. (Staph. spp. 3781 GE) amounted to 4 µg/mL (≈ 10.2 µM); in the assay on Staph. spp. (Staph. spp. B 5520 TGD) it was 4 µg/mL (≈ 10.2 µM); in the assay on Staph. spp. (Staph. spp. G 600 LH), 4 µg/mL (≈ 10.2 µM); in the assay with Staph. spp. (Staph. spp. ST 9640), 0.06 µg/mL (≈ 0.154 µM); with B. bronchiseptica, 0.25 µg/mL (≈ 0.64 µM); in the assay on M. agalactiae PG 2, 0.03 µg/mL (≈ 0.0768 µM). Besides, the MIC with M. bovirhinis PG 43 stood at 0.25 µg/mL (≈ 0.64 µM); in the assay on M. gallisepticum PG 31, 0.03 µg/mL (≈ 0.0768 µM); in the assay on M. iowae 695 it was 0.06 µg/mL (≈ 0.154 µM). Moreover, the MHK-Werte with Salmonella spp. is 0,5 µl/ml; in the assay on B. bronchiseptica (B. bronchiseptica B 9610) it was 0,25 µl/ml; in the assay on B. bronchiseptica (B. bronchiseptica B 9613), 0,25 µl/ml; in the assay on B. bronchiseptica (B. bronchiseptica B 9618), 0,25 µl/ml.
`C=CC1CN(c2cc3c(cc2F)c(=O)c(C(=O)O)cn3C2CC2)CCN1` (centres unmarked) [Bsp. 102 aus EP-A 230 053, 1-Cyclopropyl-6-fluor-1,4-dihydro-4-oxo-7-(3-vinyl-1,4-piperazin-1-yl)-3-chinoloncarbonsäure, reference compound] gave an ED90 in assay [1] of 5 to 10 mg/kg.
As for `C=CC1CN(c2c(F)cc3c(=O)c(C(=O)O)cn(C4CC4)c3c2Cl)CCN1` (centres unmarked) [Bsp. 2, 8-Chlor-1-cyclopropyl-6-fluor-1,4-dihydro-4-oxo-7-(3-vinyl-1,4-piperazin-1-yl)-3-chinolincarbonsäure-Hydrochlorid], the MHK-Werte with E. coli (E. coli 21 Bui) stood at 4 µl/ml; in the assay on E. coli (E. coli 3614 GE), 4 µl/ml; in the assay with E. coli (E. coli 9430 LH), 16 µl/ml; in the assay on E. coli (E. coli G 293 LH), 4 µl/ml; in the assay on Staph. spp. (Staph. spp. 3781 GE), 1 µl/ml; with Bordetella it was 8 µl/ml.
`C=CC1CN(c2c(F)cc3c(=O)c(C(=O)O)cn(C4CC4)c3c2Cl)CCN1` (centres unmarked) [Bsp. 1, 8-Chlor-1-cyclopropyl-6-fluor-1,4-dihydro-4-oxo-7-(3-vinyl-1,4-piperazin-1-yl)-3-chinolincarbonsäure]: the MIC with E. coli (E. coli 21 Bui) came out at 8 µg/mL (≈ 20.4 µM); in the assay with E. coli (E. coli 3614 GE), 4 µg/mL (≈ 10.2 µM); in the assay on E. coli (E. coli 9430 LH), 16 µg/mL (≈ 40.8 µM); in the assay with E. coli (E. coli Ec 9675), 1 µg/mL (≈ 2.55 µM); in the assay on E. coli (E. coli G 293 LH), 8 µg/mL (≈ 20.4 µM); in the assay with Salmonella spp., 0.5 µg/mL (≈ 1.28 µM). In addition, the MIC in the assay with Staph. spp. (Staph. spp. 2706) came to 0.06 µg/mL (≈ 0.153 µM); with Staph. spp. (Staph. spp. 3781 GE), 1 µg/mL (≈ 2.55 µM); in the assay on Staph. spp. (Staph. spp. B 5520 TGD) it was 1 µg/mL (≈ 2.55 µM); in the assay with Staph. spp. (Staph. spp. G 600 LH), 1 µg/mL (≈ 2.55 µM); in the assay on Bordetella, 8 µg/mL (≈ 20.4 µM); in the assay with B. bronchiseptica, 0.25 µg/mL (≈ 0.638 µM). Moreover, the MIC with Pseudomonas spp. stood at 0.5 µg/mL (≈ 1.28 µM); in the assay on S. agalactiae (Streptococcus agalactiae, 20 h, S. agalactiae Scc 9513, read-out: MHK-Werte), 0.5 µg/mL (≈ 1.28 µM); in the assay on S. suis (S. suis Scc 9588) it was 0.06 µg/mL (≈ 0.153 µM); in the assay with S. suis (S. suis Scc 9591) it was 0.03 µg/mL (≈ 0.0766 µM); in the assay on S. suis (S. suis Scc 9592) it was 0.25 µg/mL (≈ 0.638 µM); in the assay on S. suis (S. suis Scc 9595) it was 0.03 µg/mL (≈ 0.0766 µM). Moreover, the MIC in the assay on S. suis (S. suis Scc 9603) was 0.03 µg/mL (≈ 0.0766 µM); in the assay on M. agalactiae PG 2, 0.06 µg/mL (≈ 0.153 µM); in the assay with M. bovis "Donetta", 0.06 µg/mL (≈ 0.153 µM); with M. bovirhinis PG 43, 0.06 µg/mL (≈ 0.153 µM); in the assay on M. gallisepticum PG 31, 0.03 µg/mL (≈ 0.0766 µM); in the assay with M. iowae 695, 0.03 µg/mL (≈ 0.0766 µM). The MHK-Werte was 0,5 µl/ml in the assay on Salmonella spp.; 0,25 µl/ml with B. bronchiseptica (B. bronchiseptica B 9610); 0,25 µl/ml in the assay on B. bronchiseptica (B. bronchiseptica B 9613); 0,25 µl/ml in the assay on B. bronchiseptica (B. bronchiseptica B 9618); 0,5 µl/ml in the assay on S. agalactiae (S. agalactiae Scc 9514); 0,5 µl/ml in the assay on S. agalactiae (S. agalactiae Scc 9515). Besides, the MHK-Werte with S. agalactiae (S. agalactiae Scc 9520) and in the assay on S. agalactiae (S. agalactiae Scc 9524) was 0,5 µl/ml in each case. In [1], the ED90 worked out at 1.25 mg/kg.
